Results from PubChem BioAssay AID330 (DTP/NCI, 2004).
Where “and” joins values, the source holds several entries; their conditions need not be identical. Equal values may be shown once. Toxic doses and inconclusive results are not listed. Rule for the calls: active = survival T/C of 150% or more; inactive = T/C below 125% in these data.

System: P388 leukemia ip, CD2F1 mice, survival T/C
Assay: NCI In Vivo Anticancer Drug Screen. Data for tumor model P388 Leukemia (intraperitoneal) in CD2F1 (CDF1) mice
Details: endpoint: median survival time, higher = longer survival
How it was run: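 Mice carrying the transplanted tumor received test compound or vehicle. Survival was recorded in each group, and the value is the treated-group measurement divided by that of the vehicle-treated control group.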

[1] = dose: 120.0 mg/kg/injection, schedule: Q01DX005 (ip), vehicle: Klucel (hydroxypropylcellulose) (HPC)
[2] = dose: 50.0 mg/kg/injection, schedule: Q01DX005 (ip), vehicle: saline with Tween-80
[3] = dose: 100.0 mg/kg/injection, schedule: Q01DX005 (ip), vehicle: saline with Tween-80
[4] = dose: 200.0 mg/kg/injection, schedule: Q01DX005 (ip), vehicle: saline with Tween-80
[5] = dose: 50.0 mg/kg/injection, schedule: Q01DX009 (ip), vehicle: saline with Tween-80
[6] = dose: 50.0 mg/kg/injection, schedule: Q01DX005 (ip), vehicle: Klucel (hydroxypropylcellulose) (HPC)
[7] = dose: 100.0 mg/kg/injection, schedule: Q01DX005 (ip), vehicle: Klucel (hydroxypropylcellulose) (HPC)
[8] = dose: 200.0 mg/kg/injection, schedule: Q01DX005 (ip), vehicle: Klucel (hydroxypropylcellulose) (HPC)
[9] = dose: 60.0 mg/kg/injection, schedule: Q01DX005 (ip), vehicle: Klucel (hydroxypropylcellulose) (HPC)
[10] = dose: 25.0 mg/kg/injection, schedule: Q01DX005 (ip), vehicle: saline with Tween-80
[11] = dose: 60.0 mg/kg/injection, schedule: Q01DX005 (ip), vehicle: saline
[12] = dose: 120.0 mg/kg/injection, schedule: Q01DX005 (ip), vehicle: saline
[13] = dose: 100.0 mg/kg/injection, schedule: Q01DX009 (ip), vehicle: saline with Tween-80
[14] = dose: 200.0 mg/kg/injection, schedule: Q01DX009 (ip), vehicle: saline with Tween-80

Measured: T/C

O=C(/C=C1\Nc2ccccc2N(C(=O)c2ccccc2)C1c1ccccc1)c1ccccc1 (stereo unspecified)
inactive: dose: 7.5 mg/kg/injection, schedule: Q01DX005 (ip), vehicle: Klucel (hydroxypropylcellulose) (HPC) 103 % of control | dose: 15.0 mg/kg/injection, schedule: Q01DX005 (ip), vehicle: Klucel (hydroxypropylcellulose) (HPC) 88 % of control | dose: 30.0 mg/kg/injection, schedule: Q01DX005 (ip), vehicle: Klucel (hydroxypropylcellulose) (HPC) 88 % of control and 91 % of control | [1] 88 % of control

CCC/C(=N\NC(N)=Nc1ccc(Cl)cc1)c1ccc(Cl)cc1
inactive: dose: 25.0 mg/kg/injection, schedule: Q04DX002 (ip), vehicle: saline with Tween-80 99 % of control | dose: 50.0 mg/kg/injection, schedule: Q04DX002 (ip), vehicle: saline with Tween-80 100 % of control | dose: 100.0 mg/kg/injection, schedule: Q04DX002 (ip), vehicle: saline with Tween-80 104 % of control

C=C(Cl)CSC(=S)N(CC)CC
inactive: dose: 37.5 mg/kg/injection, schedule: Q01DX009 (ip), vehicle: saline sonified 100 % of control | dose: 75.0 mg/kg/injection, schedule: Q01DX009 (ip), vehicle: saline sonified 104 % of control | dose: 150.0 mg/kg/injection, schedule: Q01DX009 (ip), vehicle: saline sonified 109 % of control

CCCCCOC(=S)S
inactive: dose: 9.37 mg/kg/injection, schedule: Q01DX009 (ip), vehicle: saline 109 % of control | dose: 9.37 mg/kg/injection, schedule: Q04DX003 (ip), vehicle: saline with Tween-80 95 % of control | dose: 18.75 mg/kg/injection, schedule: Q01DX009 (ip), vehicle: saline 100 % of control | dose: 18.75 mg/kg/injection, schedule: Q04DX003 (ip), vehicle: saline with Tween-80 109 % of control | dose: 37.5 mg/kg/injection, schedule: Q01DX009 (ip), vehicle: saline 100 % of control | dose: 37.5 mg/kg/injection, schedule: Q04DX003 (ip), vehicle: saline with Tween-80 104 % of control

[Cl][Sn]1([Cl])[CH2]CCCCCCCCCC[CH2][Sn]([Cl])([Cl])[CH2]CCCCCCCCCC[CH2]1
inactive: [2] 100 % of control | [3] 86 % of control and 96 % of control | [4] 91 % of control

CCN(CC)CCNc1ncnc(N)c1C(=C(C)C)c1ccc(Cl)cc1
inactive: [5] 87 % of control

CC(C)CC(NC(=O)c1cccnc1)C(=O)O (stereo unspecified)
inactive: [6] 104 % of control | [7] 99 % of control | [8] 93 % of control

CC(=O)Nc1ccc(N=NNc2ccccc2)cc1
inactive: dose: 3.12 mg/kg/injection, schedule: Q01DX001 (ip), vehicle: Klucel (hydroxypropylcellulose) (HPC) 100 % of control | dose: 6.25 mg/kg/injection, schedule: Q01DX001 (ip), vehicle: Klucel (hydroxypropylcellulose) (HPC) 93 % of control | dose: 12.5 mg/kg/injection, schedule: Q01DX001 (ip), vehicle: Klucel (hydroxypropylcellulose) (HPC) 99 % of control and 97 % of control

Cn1nnc2c(Cl)nccc21
inactive: dose: 100.0 mg/kg/injection, schedule: Q04DX002 (ip), vehicle: saline 105 % of control | dose: 200.0 mg/kg/injection, schedule: Q04DX002 (ip), vehicle: saline 100 % of control | dose: 400.0 mg/kg/injection, schedule: Q04DX002 (ip), vehicle: saline 102 % of control

C1=NCCCCCCCN=Cc2ccccc2NCCNc2ccccc21
inactive: dose: 100.0 mg/kg/injection, schedule: Q04DX003 (ip), vehicle: saline 94 % of control | dose: 200.0 mg/kg/injection, schedule: Q04DX003 (ip), vehicle: saline 92 % of control | dose: 400.0 mg/kg/injection, schedule: Q04DX003 (ip), vehicle: saline 108 % of control

COc1ccc([N+]2=Cc3cc(OC)c(OC)cc3CC2)cc1OC
inactive: dose: 6.25 mg/kg/injection, schedule: Q01DX009 (ip), vehicle: water 115 % of control | dose: 12.5 mg/kg/injection, schedule: Q01DX009 (ip), vehicle: water 108 % of control | dose: 25.0 mg/kg/injection, schedule: Q01DX009 (ip), vehicle: water 108 % of control | dose: 50.0 mg/kg/injection, schedule: Q01DX009 (ip), vehicle: water 103 % of control and 108 % of control | dose: 100.0 mg/kg/injection, schedule: Q01DX009 (ip), vehicle: water 104 % of control and 88 % of control

N#Cc1cc(Cl)ccc1N=Cc1c(Cl)cccc1Cl
inactive: dose: 50.0 mg/kg/injection, schedule: Q01DX009 (ip), vehicle: Klucel (hydroxypropylcellulose) (HPC) 100 % of control | dose: 100.0 mg/kg/injection, schedule: Q01DX009 (ip), vehicle: Klucel (hydroxypropylcellulose) (HPC) 105 % of control | dose: 200.0 mg/kg/injection, schedule: Q01DX009 (ip), vehicle: Klucel (hydroxypropylcellulose) (HPC) 100 % of control

CCCCCCCCCCCCCCOC(=O)C(N)Cc1ccc(O)cc1 (stereo unspecified)
inactive: [9] 100 % of control | [1] 100 % of control | dose: 240.0 mg/kg/injection, schedule: Q01DX005 (ip), vehicle: Klucel (hydroxypropylcellulose) (HPC) 100 % of control

CCSC(C)(C)C
inactive: dose: 50.0 mg/kg/injection, schedule: Q01DX009 (ip), vehicle: saline 102 % of control | dose: 100.0 mg/kg/injection, schedule: Q01DX009 (ip), vehicle: saline 100 % of control | dose: 200.0 mg/kg/injection, schedule: Q01DX009 (ip), vehicle: saline 100 % of control

NC(N)=NC(N)=Nc1ccc2c(Cl)c(Cl)ccc2c1
inactive: dose: 6.0 mg/kg/injection, schedule: Q01DX005 (ip), vehicle: saline with Tween-80 96 % of control | dose: 12.0 mg/kg/injection, schedule: Q01DX005 (ip), vehicle: saline with Tween-80 111 % of control | dose: 22.0 mg/kg/injection, schedule: Q04DX003 (ip), vehicle: saline with Tween-80 104 % of control | [10] 104 % of control | dose: 25.0 mg/kg/injection, schedule: Q04DX003 (ip), vehicle: saline with Tween-80 120 % of control | dose: 33.0 mg/kg/injection, schedule: Q04DX003 (ip), vehicle: saline with Tween-80 100 % of control | [2] 93 % of control | dose: 50.0 mg/kg/injection, schedule: Q04DX003 (ip), vehicle: saline with Tween-80 118 % of control

C/C(=N\NC(=S)N1CCC(C)CC1)c1cccc2cccnc12
inactive: [2] 106 % of control | [3] 104 % of control

CN(C)CCCNc1c2ccccc2nc2c1c(=O)n(C)c(=O)n2C
inactive: [11] 101 % of control | [12] 107 % of control

CC12C(=O)OC(=O)C1(O)C1c3ccccc3C2c2ccccc21 (stereo unspecified)
inactive: [6] 101 % of control | [7] 101 % of control | [8] 101 % of control

CCOn1nnc2ccccc21
inactive: [5] 92 % of control | [13] 95 % of control | [14] 92 % of control

Cc1ccc2c(c1)N=C(OCCCN(C)C)/C(=C/c1ccccc1)O2
inactive: dose: 50.0 mg/kg/injection, schedule: Q04DX002 (ip), vehicle: Klucel (hydroxypropylcellulose) (HPC) 105 % of control | dose: 100.0 mg/kg/injection, schedule: Q04DX002 (ip), vehicle: Klucel (hydroxypropylcellulose) (HPC) 99 % of control | dose: 200.0 mg/kg/injection, schedule: Q04DX002 (ip), vehicle: Klucel (hydroxypropylcellulose) (HPC) 101 % of control

CN1C(=O)C(CC(=O)O)NC1=S (stereo unspecified)
inactive: [11] 101 % of control | [12] 103 % of control | dose: 240.0 mg/kg/injection, schedule: Q01DX005 (ip), vehicle: saline 104 % of control

COc1ccccc1NC(=O)Oc1ccc(C(C)(CCC(=O)O)c2ccc(OC(=O)Nc3ccccc3OC)cc2)cc1
inactive: [10] 103 % of control | [2] 101 % of control and 104 % of control and 97 % of control | [3] 102 % of control and 105 % of control and 94 % of control | [4] 90 % of control and 97 % of control | dose: 400.0 mg/kg/injection, schedule: Q01DX005 (ip), vehicle: saline with Tween-80 102 % of control

CN1CCCC(C(O)c2ccccc2)S1(=O)=O (stereo unspecified)
inactive: [5] 96 % of control | [13] 96 % of control | [14] 101 % of control

CC(=O)Oc1cc(C)cc2c1[C@@]1(C)CC[C@H]3[C@@H](CC[C@H]4C[C@@H](OC(C)=O)CC[C@@]43C)[C@@H]1C2
inactive: [6] 96 % of control | [7] 96 % of control | [8] 107 % of control

CCC(O)C1Sc2ccccc2N1C (stereo unspecified)
inactive: dose: 60.0 mg/kg/injection, schedule: Q01DX005 (ip), vehicle: saline with Tween-80 104 % of control | dose: 120.0 mg/kg/injection, schedule: Q01DX005 (ip), vehicle: saline with Tween-80 101 % of control | dose: 240.0 mg/kg/injection, schedule: Q01DX005 (ip), vehicle: saline with Tween-80 106 % of control

O=C1C(=O)c2ccc3c(c2-c2cc4c(cc21)OCO4)OCO3
inactive: [9] 86 % of control | [1] 87 % of control
